These results are taken from EPA's ToxValDB 9.5.

Broadly, the NOAEL is the highest dose or exposure tested at which no adverse effect was seen. Usually LOAEL stands for the lowest tested level that showed an adverse finding.

Some results are limits rather than exact numbers.

Data set [1] concerns Rattus norvegicus. The following applies: oral.
The test system of data set [2] is Rattus norvegicus. The following applies: oral. The source holds these as a separate data set.
The subject of data set [3] is Rattus norvegicus. The following applies: subchronic, oral; for NOEL: duration: 13 weeks, Fischer 344.
The subject of the next data set is Canidae. The following applies: chronic, oral, diet, Dog Other.
The test system of data set [4] is Rattus norvegicus. As to conditions: subchronic; duration: 13 weeks; inhalation; nose only; M/F; Fisher 344/Crl BR VAF/Plus; respiratory.
The subject of a further data set is Oryctolagus sp. As to conditions: reproduction developmental, duration: 13 days, oral, Japanese White.
The test system of a further data set is Mus musculus. As to conditions: oral.
Data set [5] has as its system Rattus norvegicus. The following applies: oral. The source holds these as a separate data set.
[6] abbreviates: subchronic, M, liver/body weight ratio and hepatic microsomal enzyme induction.
The mark [7] stands for this setting: subchronic, M/F, hypoactivity and ataxia.
Setting [8] is: duration: 1 years, F, liver effects.
Where [9] appears, read: duration: 1 years, M, liver effects.
The mark [10] stands for this setting: duration: 1 years, M/F, Blood loss into the gastrointestinal tract + coagulation defect in male and female dogs.
The mark [11] stands for this setting: duration: 1 years, M/F, increased wbc, decreased rbc (females), increased alkaline phosphatase (males).
The mark [12] stands for this setting: duration: 6 months, M/F, hematological effects.
Where [13] appears, read: developmental, duration: 6 days, ICR.
Where [14] appears, read: reproduction developmental, duration: 6 days, F, ICR.
[15] abbreviates: short-term, duration: 13 days, gavage, B6C3F1.
Where [16] appears, read: short-term, duration: 16 days, gavage, B6C3F1.
Where [17] appears, read: subchronic, duration: 13 weeks, gavage, B6C3F1.
Where [18] appears, read: chronic, duration: 103 weeks, gavage, F, Fischer 344.
[19] abbreviates: developmental, duration: 7 days, Wistar.
[20] abbreviates: short-term, duration: 13 days, gavage, Fischer 344.
Where [21] appears, read: short-term, duration: 13 days, gavage, M, Fischer 344.
Setting [22] is: short-term, duration: 16 days, gavage, Fischer 344.
The mark [23] stands for this setting: subchronic, duration: 30 days, M, Sprague-Dawley.
[24] abbreviates: subchronic, duration: 30 days, Sprague-Dawley.

Consider `Brc1ccc(Br)cc1` [1,4-Dibromobenzene], for which the NOAEL in the data set with Rattus norvegicus [1] (subchronic, duration: 45 days, gavage, Liver: Altered enzyme activities + Liver: Increased relative weight) came out at 10 mg/kg-day. Moreover, in the data set on Rattus norvegicus [2] (setting [6]), the LOAEL stood at 20 mg/kg-day and the NOAEL was 10 mg/kg-day.

With `O=C1C=CC(=O)O1` [2,5-Furandione], the NOAEL was 10 mg/kg-day with Rattus norvegicus [1] (chronic, duration: 2 years, diet, Kidney: Lesions); below 100 mg/kg-day with Rattus norvegicus [3] (duration: 90 days, diet, M/F, Sprague-Dawley, Urinalysis: Pro increase + Absolute Organ Weight: Kidney increase + Relative Organ Weight: Liver increase, Kidney increase + Necropsy: …); 10 mg/kg-day with Rattus norvegicus [2] (chronic, M/F, no effects). In addition, the LOAEL in the data set with Rattus norvegicus [2] (reproduction developmental, M/F, renal lesions) was 20 mg/kg-day.

With `CC(C)CO` [2-Methyl-1-propanol], the NOEL in the data set with Rattus norvegicus [1] (subchronic, duration: 13 weeks, gavage, Nervous system: Ataxia + Nervous system: Hypoactivity) worked out at 316 mg/kg-day; in the data set on Rattus norvegicus [2] (setting [7]), 316 mg/kg-day. Besides, the NOAEL with Rattus norvegicus [3] (duration: 90 days, gavage, M/F, CD, Deaths + Clinical Observation: Hypoactivity Ataxia Salivation Labored respiration Rales Prostration Hypothermia Emaciation + Body Weight …) was found to be 316 mg/kg-day; with Rattus norvegicus [3] (drinking water, Wistar) it was 2430 mg/kg-day. The same molecule had an LOAEL in the data set on Rattus norvegicus [2] (setting [7]) of 1000 mg/kg-day.

On to `S=C1NCCN1` [4,5-Dihydro-2-mercaptoimidazole], for which the LOAEL in the data set with Rattus norvegicus [1] (chronic, duration: 24 months, diet, Thyroid: Hyperplasia) stood at 0.25 mg/kg-day; in the data set on Rattus norvegicus [2] (chronic, duration: 24 months, diet, M/F, increased incidence of thyroid hyperplasia) it was 0.25 mg/kg-day. Further, in the data set on Rattus norvegicus [3] (diet, M/F, Body Weight Changes: decrease + Food Consumption: decrease + Histopathology: Thyroid-Diffuse follicular cell hyperplasia Thyroid-Focal …), the NOEL was below 5.76 mg/kg-day.

`[Al+3].[P-3]` [Aluminum phosphide]: the NOAEL with Rattus norvegicus [1] (chronic, duration: 2 years, diet, Unspecified: Altered clinical parameters + Whole body: Altered weight) was 0.43 mg/kg-day; in the data set on Rattus norvegicus [2] (chronic, M/F, body weight and clinical parameters), 0.043 mg/kg-day.

With `[O]=[Sb](=[O])[O][Sb](=[O])=[O]` [Antimony pentoxide], in the data set on Rattus norvegicus [1] (chronic, drinking water, blood: Altered chemistries + Whole body: Increased mortality), the LOAEL amounted to 0.46 mg/kg-day.

As for `COC(=O)c1ccccc1CS(=O)(=O)NC(=O)Nc1nc(OC)cc(OC)n1` [Bensulfuron-methyl], the LEL in the data set on Canidae (setting [8]) came out at 223 mg/kg-day; with Canidae (setting [9]) it was 237 mg/kg-day. Also, the results for the NOEL in the data set with Canidae (setting [8]) and with Canidae (setting [9]) were 19.9 mg/kg-day and 21.4 mg/kg-day, respectively.

Turning to `CC(C)N1C(=O)c2ccccc2NS1(=O)=O` [Bentazone], in the data set with Canidae (setting [10]), the LOAEL stood at 13.1 mg/kg-day and the NOAEL was 3.2 mg/kg-day.

For `N#Cc1cc(Br)c(O)c(Br)c1` [Bromoxynil], the NOEL was 5 mg/kg-day in the data set with Rattus norvegicus [1] (chronic, duration: 2 years, diet, None Observed) and 5 mg/kg-day in the data set with Rattus norvegicus [2] (chronic, duration: 2 years, diet, M/F, no effects).

For the molecule `NCl` [Chloramine], the NOAEL in the data set on Rattus norvegicus [1] (chronic, duration: 2 years, drinking water, Kidney: Weight changes + Liver: Weight changes + Whole body: Weight changes) came to 9.5 mg/kg-day; in the data set with Rattus norvegicus [2] (chronic, M/F, no effects), 9.5 mg/kg-day.

In the data set on Canidae (setting [11]), `CCOC(=O)c1ccccc1S(=O)(=O)NC(=O)Nc1nc(Cl)cc(OC)n1` [Chlorimuron-ethyl] returned an LEL of 37.5 mg/kg-day and an NOEL of 6.25 mg/kg-day.

As for `[Cr+3]` [Chromium (III)], the “NOEL (% CrO3)” value in the data set on Rattus norvegicus [1] (chronic, duration: 840 days, diet, None Observed) came out at 5. Besides, the LOAEL with Rattus norvegicus [4] is 3 mg/m3.

As for `N#CC#N` [Cyanogen], in the data set with Rattus norvegicus [1] (chronic, duration: 2 years, diet, Nerve: Myelin degeneration + Thyroid: Effects + Whole body: Decreased weight), the NOAEL is 21.6 mg/kg-day.

Take `Nc1nc(N)nc(NC2CC2)n1` [Cyromazine]: in the data set on Canidae (setting [12]), the LEL amounted to 7.5 mg/kg-day and the NOEL stood at 0.75 mg/kg-day.

Take `C=C(C)[C@H]1CC=C(C)CC1` [D-Limonene]: in the data set on Rattus norvegicus [3] (gavage, M/F, Deaths + Clinical Observation: Rough hair coats Excessive lacrimation + Body Weight Changes: decrease + Histopathology: Kidney-Nephropathy), the NOEL was below 150 mg/kg-day. In addition, the LOAEL in the data set on Oryctolagus sp. (F) was 500 mg/kg-day; with Mus musculus (chronic, duration: 103 weeks, gavage, F, B6C3F1) it was 1000 mg/kg-day; in the data set with Mus musculus (setting [13]), 2360 mg/kg-day; in the data set on Mus musculus (setting [14]), 2360 mg/kg-day; in the data set on Mus musculus (setting [15]), 1000 mg/kg-day; in the data set with Mus musculus (setting [16]), 3300 mg/kg-day. In addition, the LOAEL was 1000 mg/kg-day in the data set with Mus musculus (setting [17]); 600 mg/kg-day with Rattus norvegicus [5] (setting [18]); 75 mg/kg-day with Rattus norvegicus [5] (chronic, duration: 103 weeks, gavage, M, Fischer 344); 2870 mg/kg-day in the data set with Rattus norvegicus [5] (setting [19]); 600 mg/kg-day with Rattus norvegicus [5] (setting [20]); 30 mg/kg-day in the data set on Rattus norvegicus [5] (setting [21]). Moreover, the values for the LOAEL in the data set on Rattus norvegicus [5] (setting [22]), with Rattus norvegicus [5] (setting [23]) and with Rattus norvegicus [5] (setting [24]) were 3300 mg/kg-day, 2770 mg/kg-day and 2770 mg/kg-day, respectively. For the same molecule, the NOAEL was 250 mg/kg-day with Oryctolagus sp. (F); above 1000 mg/kg-day with Oryctolagus sp. (generation: F1); 500 mg/kg-day in the data set with Mus musculus (chronic, duration: 103 weeks, gavage, B6C3F1); 591 mg/kg-day with Mus musculus (setting [13]); 591 mg/kg-day in the data set with Mus musculus (setting [14]); 500 mg/kg-day in the data set on Mus musculus (setting [15]). For the same molecule, the no-observed-adverse-effect level (NOAEL) with Mus musculus (setting [16]) came out at 1650 mg/kg-day; with Mus musculus (setting [17]) it was 500 mg/kg-day; in the data set on Rattus norvegicus [5] (setting [18]), 300 mg/kg-day; in the data set with Rattus norvegicus [5] (setting [19]), 591 mg/kg-day; in the data set on Rattus norvegicus [5] (reproduction developmental, duration: 7 days, F, Wistar) it was 591 mg/kg-day; in the data set with Rattus norvegicus [5] (setting [20]), 300 mg/kg-day. The NOAEL in the data set with Rattus norvegicus [5] (setting [21]) turned out to be 5 mg/kg-day; with Rattus norvegicus [5] (setting [22]) it was 1650 mg/kg-day; in the data set on Rattus norvegicus [5] (setting [23]) it was 1380 mg/kg-day; with Rattus norvegicus [5] (setting [24]), 1380 mg/kg-day. The results for the LOAEC with Mus musculus (setting [16]) and in the data set with Rattus norvegicus [5] (setting [22]) were 3300 mg/kg-day and 1650 mg/kg-day, respectively.
